The subject of test [1] is drill holes in bone (femur) of male rats. Kind of test: Healing of drill-hole defects in the femur of rats. The class given is in vivo, rat. To be noted: for bone healing activity: general statement. As to the method: In one representative study, male rats weighing approximately 350-400 grams received drill holes in bone which were then treated with pharmaceutical preparations containing GHL-Cu.
More specifically, on the day of surgery (Day 0), animals were sedated with pentobarbital (I.P., 35 mg/kg). The hair was clipped from the left rear upper limb, and the area was prepped in a sterile fashion. Using a #15 blade, a 2 cm incision was made on the lateral surface of the upper limb following the approximate location of the femur, extending from just below the crest of the ilium. The tensor fasciae latae muscle was exposed and incised parallel to the muscle filers (1 cm incision). Careful retraction of the muscle provided exposure of the vastus lateralis muscle overlying the femur. The approach to the femur was completed upon incision and retraction of this muscle. This provided exposure of 1 cm of the lateral and ventral surfaces of bone. Using a periosteal elevator, the surface of the femur was cleaned of periosteum. At this point, very little bleeding had been encountered. Using a Dremel drill fitted with a 1 mm diameter cutting burr, a hole was drilled in the femur to a depth of approximately 0.75 mm. Little bleeding was evident except in the rare case of marrow penetration. The area was irrigated and hemostasis achieved. At this point, a pharmaceutical preparation of the compositions of the present invention was applied to the exposed bone surface. The muscle was closed in layers using chromic suture, and the skin was closed with stainless steel wound clips. Structure and function of the muscles was intact following surgery, and very little, if any, morbidity was associated with the surgical procedure.
After 7 to 14 days, the animals were terminated and their femurs removed. Evidence of bone growth was determined from gross visualization of the defect using a Wild dissecting scope, and from subsequent histological preparations (decalcification, paraffin embedding, and Trichrome staining).
Results at 12 to 14 days following surgery utilizing pharmaceutical preparation B to accelerate the bone healing process are summarized in Table 2. Controls consisted of bones without treatment.
In a second study, defects were created in bones and pharmaceutical preparation E applied to the exposed bone in the same manner as described in Example 9.

The test system of test [2] is bone models implanted in rats. Kind of test: Granulation tissue formation in stainless steel chambers (bone healing model) implanted subcutaneously in rats. The class given is in vivo, rat. The note with it: for PROTEIN: relative to BSA. From the text:
The subcutaneous implantation of stainless steel chambers in rats provides a reproducible models to monitor the healing of bone. This model in many ways mimics the early events in the formation of granulation tissue found in fractures or other types of injury to bone. Implantation of these chambers triggers a series of responses which reflect the series of phases involved in bone healing--fibrin clot formation, infiltration of white cells, collagen synthesis, and new blood vessel formation.
The assay involves the implantation of two stainless steel chambers (1×2.5 cm cylindrical 312 SS, 20 mesh, with Teflon end caps) on each side of the dorsal midline of rats. After one week to allow for encapsulation of the chambers, one chamber on each rat was injected with 0.2 ml of a 10 mg/ml solution of GHL-Cu and the other with the same volume of saline. Injections are made on days […], 7, 8, 12, 13, 15 and 19. The chambers were removed on day 15 and day 29.
The chambers were lyophilized and the interior contents removed for biochemical analysis. The biochemical parameters examined include the total dry weight, protein content, angiogenesis (alkaline phosphatase activity), and collagen content (hydroxyproline content after acid hydrolysis). Significant increases were found in all the biochemical parameters tested when compounds of the present invention were used as compared to controls.
Protein content was determined by the method of Lowry (Lowry et al., J. Biol. Chem. 193:265-275, 1951) using Bovine Serum Albumin (BSA) as a standard. Angiogenesis was determined by measuring the amount of alkaline phosphatase activity using p-nitrophenyl phosphate as a substrate (Lyles et al., C. Biochem. Pharm. 33:2569-2574, 1984). The collagen content was determined by acid hydrolysis and a colorimetric assay for hydroxyproline (Bergman et al., R. Clin. Chim. Acta 27:347-349, 1970), an amino acid specific for collagen.
The total protein is expressed as mg protein (relative to BSA) per chamber, the angiogenesis as alkaline phosphatase (AP) units per chamber, where one unit=the amount of homogenate which causes an increase in absorbance at 405 nm of 1.0 per min., and the hydroxyproline (HP, Collagen Content) as μg HP per chamber. Comparison with control data is made by determining the ratio, treated/control (T/C) for each parameter.

“And” between values parts separate entries of the source, which are not always exact repeats. Identical values can stand only once.

On to “L-lysyl-L-histidyl-glycine:copper(II) [LHG-Cu]”, for which, in test [1], the bone healing activity entry is given as “have shown bone healing activity”.
With “glycyl-L-histidyl-L-lysine:copper(II) [GHL-Cu]”, in test [2] (day 15), the “ANGIOGENESIS (alkaline phosphatase)” value is listed as 6.5 ± 3.2 AP units/chamber, the “COLLAGEN (hydroxyproline)” value is 243 ± 215 μg HP/chamber and the PROTEIN amounted to 69 ± 32 mg/chamber. Also, the “DRY WEIGHT” value in test [2] (day 15, chamber injected with 0.2 ml of 10 mg/ml solution) is on record as 92 ± 46 mg. In addition, in test [2] (day 15, ratio treated/control), the T/C dry weight was ~ 2 and 2.2; the T/C protein was ~ 2 and 2.0. For the same substance, in test [2] (day 29), the “ANGIOGENESIS (alkaline phosphatase)” value stood at 20.3 ± 10.0 AP units/chamber, the “COLLAGEN (hydroxyproline)” value is on record as 1849 ± 546 μg HP/chamber, the “DRY WEIGHT” value is listed as 165 ± 38 mg and the PROTEIN was 77 ± 19 mg/chamber. In test [2] (day 29, ratio treated/control), the T/C angiogenesis is recorded as 3.2, the T/C collagen is given as 1.9, the T/C dry weight stood at 1.7 and the T/C protein came to 1.4. In addition, the “histology, periosteal layer (FIG. 6)” value in test [1] (X40, Trichrome stain, versus placebo) is “better developed and continuous”. Also, in test [1] (X 63, Trichrome stain, versus placebo), the “histology, new bone (FIG. 7)” value was “increase in density of new bone”. For the same substance, the “gross appearance of bone defect (FIG. 5)” value in test [1] (day 7, versus placebo gel) was “influx of bony calcification and granulation tissue”. The bone healing activity result in test [1] is “have shown bone healing activity”.

Source of the values: patent US5059588A, “Methods and compositions for healing bone using Gly His Lys: Copper” (ProCyte Corporation, Incorporated, priority 1989, dated 1991).
